Two compounds from paper PMC8213057, “Targeting ALK2: An Open Science Approach to Developing Therapeutics for the Treatment of Diffuse Intrinsic Pontine Glioma” (Journal of Medicinal Chemistry, 2020) can be followed below.

The structures appear in SMILES notation.

The target in one test is TYK2 (Homo sapiens, UniProt P29597). The test is described as follows: biochemical. The conditions noted are these: read-out: % enzyme activity, 1 μM; Run 1, Run 2.
For a further test, the target named is T1, AXL (Homo sapiens, UniProt P30530).
T1 sequence (P30530 26-894): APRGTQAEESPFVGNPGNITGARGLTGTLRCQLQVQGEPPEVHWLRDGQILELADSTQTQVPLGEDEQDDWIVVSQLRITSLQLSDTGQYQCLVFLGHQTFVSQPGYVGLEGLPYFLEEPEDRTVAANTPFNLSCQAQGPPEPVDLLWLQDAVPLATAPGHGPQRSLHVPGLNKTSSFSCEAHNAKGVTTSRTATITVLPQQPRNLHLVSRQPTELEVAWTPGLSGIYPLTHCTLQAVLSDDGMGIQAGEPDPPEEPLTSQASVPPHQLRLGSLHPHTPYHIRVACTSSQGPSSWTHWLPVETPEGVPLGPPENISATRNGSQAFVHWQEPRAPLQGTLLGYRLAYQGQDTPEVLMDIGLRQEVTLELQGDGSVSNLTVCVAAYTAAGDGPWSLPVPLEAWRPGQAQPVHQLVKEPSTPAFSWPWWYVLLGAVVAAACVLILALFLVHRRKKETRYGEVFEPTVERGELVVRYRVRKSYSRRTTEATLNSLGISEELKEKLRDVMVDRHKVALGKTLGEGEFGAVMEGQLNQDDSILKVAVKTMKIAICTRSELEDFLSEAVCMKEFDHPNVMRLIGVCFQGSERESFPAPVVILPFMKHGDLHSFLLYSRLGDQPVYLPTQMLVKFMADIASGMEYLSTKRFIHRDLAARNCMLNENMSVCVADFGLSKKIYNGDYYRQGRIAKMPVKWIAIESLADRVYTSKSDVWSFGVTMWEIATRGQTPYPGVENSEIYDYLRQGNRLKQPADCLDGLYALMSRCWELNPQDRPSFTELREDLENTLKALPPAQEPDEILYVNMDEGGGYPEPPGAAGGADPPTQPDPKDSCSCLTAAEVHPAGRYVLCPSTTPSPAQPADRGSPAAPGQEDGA
Conditions: 1 μM; Run 1, Run 2.

A further test has as its target STK16 (Homo sapiens, UniProt O75716). The conditions noted are these: 1 μM; Run 1, Run 2.
A further test concerns the target T2, EPHB3 (Homo sapiens, UniProt P54753).
T2 sequence (P54753 34-998): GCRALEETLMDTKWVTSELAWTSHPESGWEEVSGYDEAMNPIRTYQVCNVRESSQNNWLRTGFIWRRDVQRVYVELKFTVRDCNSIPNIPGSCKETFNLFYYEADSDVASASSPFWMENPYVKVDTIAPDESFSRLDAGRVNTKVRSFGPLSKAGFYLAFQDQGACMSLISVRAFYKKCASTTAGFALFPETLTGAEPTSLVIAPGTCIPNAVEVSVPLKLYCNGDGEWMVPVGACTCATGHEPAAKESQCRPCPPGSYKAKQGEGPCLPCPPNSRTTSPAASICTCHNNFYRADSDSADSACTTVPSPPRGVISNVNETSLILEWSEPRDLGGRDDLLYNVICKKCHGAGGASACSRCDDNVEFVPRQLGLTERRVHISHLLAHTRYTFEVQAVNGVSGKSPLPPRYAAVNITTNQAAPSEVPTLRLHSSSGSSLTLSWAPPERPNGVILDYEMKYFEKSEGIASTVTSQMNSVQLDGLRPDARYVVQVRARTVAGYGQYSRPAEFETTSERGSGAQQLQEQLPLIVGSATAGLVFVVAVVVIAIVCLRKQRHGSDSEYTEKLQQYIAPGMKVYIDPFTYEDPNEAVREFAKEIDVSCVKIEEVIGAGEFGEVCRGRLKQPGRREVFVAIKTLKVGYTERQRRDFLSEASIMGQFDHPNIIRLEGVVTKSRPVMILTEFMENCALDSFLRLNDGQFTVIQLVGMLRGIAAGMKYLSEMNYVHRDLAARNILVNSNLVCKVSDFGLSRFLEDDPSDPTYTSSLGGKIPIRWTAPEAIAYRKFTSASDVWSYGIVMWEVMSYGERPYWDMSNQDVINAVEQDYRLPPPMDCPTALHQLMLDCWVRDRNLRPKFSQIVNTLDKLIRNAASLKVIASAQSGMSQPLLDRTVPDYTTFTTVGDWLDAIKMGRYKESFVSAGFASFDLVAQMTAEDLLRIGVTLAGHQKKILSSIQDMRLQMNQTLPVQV
Conditions: 1 μM; Run 1, Run 2.

The next test deals with NEK4 (Homo sapiens, UniProt P51957). The conditions noted are these: 1 μM; Run 1, Run 2.
Chain of NEK4 (P51957 whole entry): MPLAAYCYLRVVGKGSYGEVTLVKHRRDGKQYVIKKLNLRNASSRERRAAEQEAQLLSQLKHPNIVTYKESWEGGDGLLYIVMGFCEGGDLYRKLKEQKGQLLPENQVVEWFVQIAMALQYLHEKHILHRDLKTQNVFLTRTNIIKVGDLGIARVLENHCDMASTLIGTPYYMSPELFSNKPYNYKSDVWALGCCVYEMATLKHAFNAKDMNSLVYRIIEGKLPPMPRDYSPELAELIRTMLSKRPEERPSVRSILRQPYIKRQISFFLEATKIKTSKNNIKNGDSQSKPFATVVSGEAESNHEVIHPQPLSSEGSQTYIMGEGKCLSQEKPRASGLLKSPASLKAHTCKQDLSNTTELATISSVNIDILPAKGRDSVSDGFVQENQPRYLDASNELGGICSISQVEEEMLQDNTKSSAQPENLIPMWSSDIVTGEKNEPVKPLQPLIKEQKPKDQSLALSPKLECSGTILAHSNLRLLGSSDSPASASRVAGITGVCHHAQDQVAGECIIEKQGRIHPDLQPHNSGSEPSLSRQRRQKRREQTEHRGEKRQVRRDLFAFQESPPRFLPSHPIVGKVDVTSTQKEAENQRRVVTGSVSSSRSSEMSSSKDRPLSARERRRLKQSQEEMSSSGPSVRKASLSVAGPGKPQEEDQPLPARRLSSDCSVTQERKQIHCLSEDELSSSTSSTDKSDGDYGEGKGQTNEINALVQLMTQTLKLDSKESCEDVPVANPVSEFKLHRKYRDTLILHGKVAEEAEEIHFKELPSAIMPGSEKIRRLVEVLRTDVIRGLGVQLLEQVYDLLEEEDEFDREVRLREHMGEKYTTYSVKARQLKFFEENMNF
The target in another test is CDK9/cyclin T2 (Homo sapiens, UniProt P50750). The test is described as follows: biochemical. Conditions: read-out: % enzyme activity, 1 μM; Run 1, Run 2.
Chain of CDK9/cyclin T2 (P50750 whole entry): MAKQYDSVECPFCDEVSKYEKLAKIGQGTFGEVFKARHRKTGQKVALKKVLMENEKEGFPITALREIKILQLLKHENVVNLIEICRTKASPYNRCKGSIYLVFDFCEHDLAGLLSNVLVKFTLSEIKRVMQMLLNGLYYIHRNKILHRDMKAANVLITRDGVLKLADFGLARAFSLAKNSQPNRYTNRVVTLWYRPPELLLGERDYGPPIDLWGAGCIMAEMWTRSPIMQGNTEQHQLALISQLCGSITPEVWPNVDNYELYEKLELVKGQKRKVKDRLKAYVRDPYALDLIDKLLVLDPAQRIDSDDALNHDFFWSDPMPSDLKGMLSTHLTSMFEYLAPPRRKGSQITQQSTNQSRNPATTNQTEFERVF
Chain of CDK9/cyclin T2 (O60583 whole entry partner): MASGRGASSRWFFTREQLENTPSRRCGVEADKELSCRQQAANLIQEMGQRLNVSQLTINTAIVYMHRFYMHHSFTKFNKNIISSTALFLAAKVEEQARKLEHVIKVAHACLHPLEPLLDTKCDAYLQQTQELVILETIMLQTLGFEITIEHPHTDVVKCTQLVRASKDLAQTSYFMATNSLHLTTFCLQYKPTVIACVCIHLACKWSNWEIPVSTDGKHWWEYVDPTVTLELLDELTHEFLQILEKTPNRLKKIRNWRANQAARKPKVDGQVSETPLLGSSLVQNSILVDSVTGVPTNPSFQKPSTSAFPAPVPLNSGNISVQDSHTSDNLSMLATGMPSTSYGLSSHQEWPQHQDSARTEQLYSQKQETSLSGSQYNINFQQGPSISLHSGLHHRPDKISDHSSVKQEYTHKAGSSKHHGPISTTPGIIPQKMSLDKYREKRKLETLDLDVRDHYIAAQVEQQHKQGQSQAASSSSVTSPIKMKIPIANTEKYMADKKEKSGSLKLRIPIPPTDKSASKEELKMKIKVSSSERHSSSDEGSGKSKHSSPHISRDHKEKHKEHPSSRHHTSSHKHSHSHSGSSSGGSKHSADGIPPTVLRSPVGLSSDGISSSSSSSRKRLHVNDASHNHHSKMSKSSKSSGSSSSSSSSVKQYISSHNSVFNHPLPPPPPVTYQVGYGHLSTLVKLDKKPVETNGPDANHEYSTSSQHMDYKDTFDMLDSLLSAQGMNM
Another test deals with GRK6 (Homo sapiens, UniProt P43250). The test is described as follows: biochemical. The conditions noted are these: read-out: % enzyme activity, 1 μM; Run 1, Run 2.
Chain of GRK6 (P43250 whole entry): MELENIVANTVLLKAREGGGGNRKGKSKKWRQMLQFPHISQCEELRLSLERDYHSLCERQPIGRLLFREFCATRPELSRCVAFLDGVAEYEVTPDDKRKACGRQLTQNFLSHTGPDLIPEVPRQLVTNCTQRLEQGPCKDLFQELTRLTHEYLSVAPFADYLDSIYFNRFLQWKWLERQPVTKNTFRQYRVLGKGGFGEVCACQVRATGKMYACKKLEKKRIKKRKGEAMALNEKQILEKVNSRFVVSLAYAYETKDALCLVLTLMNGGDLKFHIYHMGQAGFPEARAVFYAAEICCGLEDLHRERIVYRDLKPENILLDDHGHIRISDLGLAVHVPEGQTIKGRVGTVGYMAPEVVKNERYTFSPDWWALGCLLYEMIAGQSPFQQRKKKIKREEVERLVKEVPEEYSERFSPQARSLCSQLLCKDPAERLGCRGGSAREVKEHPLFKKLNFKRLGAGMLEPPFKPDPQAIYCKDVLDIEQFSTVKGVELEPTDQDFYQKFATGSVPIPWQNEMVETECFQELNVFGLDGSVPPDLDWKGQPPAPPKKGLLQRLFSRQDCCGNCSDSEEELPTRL
The next test has as its target T3, PKCepsilon (Homo sapiens, UniProt Q02156).
T3 sequence (Q02156 1-737): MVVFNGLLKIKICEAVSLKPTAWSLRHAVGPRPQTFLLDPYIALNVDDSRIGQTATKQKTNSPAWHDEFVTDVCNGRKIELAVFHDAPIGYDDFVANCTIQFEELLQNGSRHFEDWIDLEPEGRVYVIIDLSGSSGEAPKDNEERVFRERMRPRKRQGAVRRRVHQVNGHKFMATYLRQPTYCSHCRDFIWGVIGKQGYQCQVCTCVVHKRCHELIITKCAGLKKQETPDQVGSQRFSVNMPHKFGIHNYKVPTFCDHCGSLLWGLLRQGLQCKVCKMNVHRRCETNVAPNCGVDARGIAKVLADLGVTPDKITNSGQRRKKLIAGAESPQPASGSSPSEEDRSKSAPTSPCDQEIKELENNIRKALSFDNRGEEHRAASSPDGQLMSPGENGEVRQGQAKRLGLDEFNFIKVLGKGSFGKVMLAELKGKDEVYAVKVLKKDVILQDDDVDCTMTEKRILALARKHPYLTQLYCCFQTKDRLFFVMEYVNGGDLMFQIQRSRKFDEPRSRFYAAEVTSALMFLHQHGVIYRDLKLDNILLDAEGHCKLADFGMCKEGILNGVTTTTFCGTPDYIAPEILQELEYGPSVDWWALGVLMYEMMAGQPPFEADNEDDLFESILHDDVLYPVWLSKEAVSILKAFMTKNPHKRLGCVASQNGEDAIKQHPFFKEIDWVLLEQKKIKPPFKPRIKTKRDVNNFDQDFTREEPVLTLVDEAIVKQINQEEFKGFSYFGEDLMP
The test is described as follows: biochemical. The conditions noted are these: read-out: % enzyme activity, 1 μM; Run 1, Run 2.

Another test has as its target LIMK2 (Homo sapiens, UniProt P53671). The test is described as follows: biochemical. The conditions noted are these: read-out: % enzyme activity, 1 μM; Run 1, Run 2.

Chain of LIMK2 (P53671 whole entry): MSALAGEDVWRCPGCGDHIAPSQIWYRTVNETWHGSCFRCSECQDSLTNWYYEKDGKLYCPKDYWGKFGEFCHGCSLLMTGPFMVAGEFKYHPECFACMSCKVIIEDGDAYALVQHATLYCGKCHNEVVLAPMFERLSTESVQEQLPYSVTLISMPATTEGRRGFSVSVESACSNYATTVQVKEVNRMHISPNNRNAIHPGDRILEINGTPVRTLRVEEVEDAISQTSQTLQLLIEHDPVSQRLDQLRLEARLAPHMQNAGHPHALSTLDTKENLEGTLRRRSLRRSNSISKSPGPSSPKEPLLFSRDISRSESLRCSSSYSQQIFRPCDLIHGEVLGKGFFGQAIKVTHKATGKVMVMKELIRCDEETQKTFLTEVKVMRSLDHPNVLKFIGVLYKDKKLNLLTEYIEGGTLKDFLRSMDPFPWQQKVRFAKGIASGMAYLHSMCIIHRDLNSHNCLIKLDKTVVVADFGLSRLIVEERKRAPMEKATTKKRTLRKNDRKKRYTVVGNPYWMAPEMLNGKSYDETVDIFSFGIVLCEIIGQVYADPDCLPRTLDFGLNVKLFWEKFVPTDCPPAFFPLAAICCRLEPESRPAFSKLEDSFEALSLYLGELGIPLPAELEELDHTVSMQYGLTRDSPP
Chain of TYK2 (P29597 whole entry, species assumed): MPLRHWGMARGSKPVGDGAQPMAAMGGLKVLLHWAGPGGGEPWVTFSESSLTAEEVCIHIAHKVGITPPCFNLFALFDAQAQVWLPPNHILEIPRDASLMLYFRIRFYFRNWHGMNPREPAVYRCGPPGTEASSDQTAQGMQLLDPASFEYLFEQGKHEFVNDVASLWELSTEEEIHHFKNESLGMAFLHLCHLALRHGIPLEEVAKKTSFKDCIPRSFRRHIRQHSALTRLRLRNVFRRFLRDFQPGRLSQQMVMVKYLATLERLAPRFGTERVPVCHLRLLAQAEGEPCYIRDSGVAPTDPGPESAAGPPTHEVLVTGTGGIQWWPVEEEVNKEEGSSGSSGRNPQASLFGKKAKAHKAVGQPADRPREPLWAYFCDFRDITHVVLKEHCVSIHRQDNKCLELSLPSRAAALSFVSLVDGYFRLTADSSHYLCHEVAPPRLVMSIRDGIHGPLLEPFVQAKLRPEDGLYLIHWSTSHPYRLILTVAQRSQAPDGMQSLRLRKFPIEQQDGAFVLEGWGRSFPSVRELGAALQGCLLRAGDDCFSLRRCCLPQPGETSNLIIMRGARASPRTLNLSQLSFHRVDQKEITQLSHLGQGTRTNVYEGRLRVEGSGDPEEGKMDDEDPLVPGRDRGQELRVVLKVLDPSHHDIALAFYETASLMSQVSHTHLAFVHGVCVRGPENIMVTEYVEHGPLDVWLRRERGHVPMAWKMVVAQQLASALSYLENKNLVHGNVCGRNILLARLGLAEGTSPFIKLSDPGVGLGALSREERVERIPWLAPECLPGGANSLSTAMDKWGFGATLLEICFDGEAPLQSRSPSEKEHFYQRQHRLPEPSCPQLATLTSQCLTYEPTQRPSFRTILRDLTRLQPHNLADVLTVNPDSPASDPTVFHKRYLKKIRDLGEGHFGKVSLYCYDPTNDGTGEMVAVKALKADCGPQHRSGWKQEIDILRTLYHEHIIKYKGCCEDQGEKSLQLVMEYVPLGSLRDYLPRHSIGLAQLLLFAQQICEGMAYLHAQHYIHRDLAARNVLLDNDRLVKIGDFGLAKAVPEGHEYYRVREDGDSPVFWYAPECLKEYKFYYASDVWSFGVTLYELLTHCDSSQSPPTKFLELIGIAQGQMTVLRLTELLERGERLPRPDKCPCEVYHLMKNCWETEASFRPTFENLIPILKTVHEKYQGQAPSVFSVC
Chain of STK16 (O75716 whole entry): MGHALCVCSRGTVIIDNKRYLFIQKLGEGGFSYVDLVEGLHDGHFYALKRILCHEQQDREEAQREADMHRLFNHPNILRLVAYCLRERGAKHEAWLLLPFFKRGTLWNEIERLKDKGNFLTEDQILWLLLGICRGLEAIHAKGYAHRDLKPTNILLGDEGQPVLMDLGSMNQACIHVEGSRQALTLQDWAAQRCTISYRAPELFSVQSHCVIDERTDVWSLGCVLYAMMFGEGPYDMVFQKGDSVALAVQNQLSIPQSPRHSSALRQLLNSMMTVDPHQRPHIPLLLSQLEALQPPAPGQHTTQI

On to `COc1cc(-c2cncc(-c3ccc(N4C[C@@H](C)N(C)[C@@H](C)C4)cc3)c2C)cc(F)c1C(N)=O` [Compound 26c, 2-Fluoro-6-methoxy-4-(4-methyl-5-(4-((3R,5S)-3,4,5-trimethylpiperazin-1-yl)phenyl)pyridin-3-yl)benzamide], for which the remaining activity at 1 µM stood at 103% at TYK2; 102% on CDK9/cyclin T2; 97.1% on GRK6; 106% at PKCepsilon; 97.8% at LIMK2. Besides, the “% enzyme activity” value was 86.95% on AXL, 99.45% at STK16, 96.08% at EPHB3 and 97.25% at NEK4.

On to `COc1cc(-c2cncc(-c3ccc(N4CCN(C)CC4)cc3)c2C)cc(F)c1C(N)=O` [Compound 26a, 2-Fluoro-6-methoxy-4-(4-methyl-5-(4-(4-methylpiperazin-1-yl)phenyl)pyridin-3-yl)benzamide], for which the remaining activity at 1 µM at TYK2 is 92.6%; on CDK9/cyclin T2 it was 100%; on GRK6, 109%; on PKCepsilon, 99.8%; on LIMK2 it was 102%. Also, the “% enzyme activity” value on AXL came to 81.59%; at STK16, 103.69%; at EPHB3 it was 95.16%; on NEK4, 97.67%.
